According to US10231954B2, “Neurodegenerative therapies” (LYTIX BIOPHARMA AS, priority 2014, dated 2019):
pIC50: −log10 of the molar value. Read-outs that look alike come from different tables or passages of the source.

Tests used:
Assay type in all cases: biochemical
MELK = MELK (Homo sapiens, UniProt Q14680); experiment: Kinase profiling MELK; details: for remaining activity at 100 µM: read-out: residual kinase activity, MELK
Description: (§1) Any value less that 25 is considered to be highly significant inhibition.

MAPKAP-K2 = MAPKAP-K2 (Homo sapiens, UniProt P49137); experiment: Kinase profiling MAPKAP-K2; details: for remaining activity at 100 µM: read-out: residual kinase activity, MAPKAP-K2
MAPKAP-K2, sequence (P49137 whole entry, species assumed): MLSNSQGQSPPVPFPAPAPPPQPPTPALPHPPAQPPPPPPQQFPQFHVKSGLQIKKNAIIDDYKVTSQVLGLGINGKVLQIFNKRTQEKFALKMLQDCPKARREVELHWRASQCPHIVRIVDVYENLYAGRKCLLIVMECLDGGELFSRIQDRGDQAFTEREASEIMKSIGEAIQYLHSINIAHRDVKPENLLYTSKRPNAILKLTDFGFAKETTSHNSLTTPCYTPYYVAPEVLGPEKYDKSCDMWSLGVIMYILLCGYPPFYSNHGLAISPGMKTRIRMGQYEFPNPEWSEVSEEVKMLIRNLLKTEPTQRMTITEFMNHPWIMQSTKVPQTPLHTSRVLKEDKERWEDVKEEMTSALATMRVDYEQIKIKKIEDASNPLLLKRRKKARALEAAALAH
Description: as §1

MNK1 = MNK1 (Homo sapiens, UniProt Q9BUB5); experiment: Kinase profiling MNK1; details: for remaining activity at 100 µM: read-out: residual kinase activity, MNK1
MNK1, sequence (Q9BUB5 whole entry, species assumed): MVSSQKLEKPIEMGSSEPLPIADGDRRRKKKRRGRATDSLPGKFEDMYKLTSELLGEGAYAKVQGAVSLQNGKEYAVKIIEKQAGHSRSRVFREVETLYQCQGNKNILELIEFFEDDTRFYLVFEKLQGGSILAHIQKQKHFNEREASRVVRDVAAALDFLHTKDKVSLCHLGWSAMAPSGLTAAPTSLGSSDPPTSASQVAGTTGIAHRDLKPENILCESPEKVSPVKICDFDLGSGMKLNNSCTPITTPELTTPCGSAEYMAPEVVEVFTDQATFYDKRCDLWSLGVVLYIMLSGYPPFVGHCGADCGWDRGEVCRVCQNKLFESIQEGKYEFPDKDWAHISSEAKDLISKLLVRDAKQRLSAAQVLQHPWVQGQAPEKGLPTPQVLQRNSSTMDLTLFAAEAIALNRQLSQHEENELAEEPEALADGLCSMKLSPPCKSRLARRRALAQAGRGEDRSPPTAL
Description: as §1

BRK = BRK (Homo sapiens, UniProt Q13882); experiment: Kinase profiling BRK; details: for remaining activity at 100 µM: read-out: residual kinase activity, BRK
BRK, sequence (Q13882 whole entry, species assumed): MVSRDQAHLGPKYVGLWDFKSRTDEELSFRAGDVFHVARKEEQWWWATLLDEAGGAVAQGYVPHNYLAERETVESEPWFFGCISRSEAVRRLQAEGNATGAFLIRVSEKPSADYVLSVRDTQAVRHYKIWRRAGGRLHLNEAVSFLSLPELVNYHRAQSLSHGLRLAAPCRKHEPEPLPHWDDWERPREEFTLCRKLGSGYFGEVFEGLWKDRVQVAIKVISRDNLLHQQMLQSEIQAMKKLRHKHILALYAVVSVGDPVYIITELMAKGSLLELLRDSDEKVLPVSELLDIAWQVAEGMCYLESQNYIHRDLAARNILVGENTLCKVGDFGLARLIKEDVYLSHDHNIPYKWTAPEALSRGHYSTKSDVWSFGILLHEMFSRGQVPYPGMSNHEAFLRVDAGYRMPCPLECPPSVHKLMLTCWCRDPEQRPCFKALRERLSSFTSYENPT
Description: as §1

ABL = ABL (Homo sapiens, UniProt P00519); experiment: Kinase profiling ABL; details: for remaining activity at 100 µM: read-out: residual kinase activity, ABL
ABL, sequence (P00519 whole entry, species assumed): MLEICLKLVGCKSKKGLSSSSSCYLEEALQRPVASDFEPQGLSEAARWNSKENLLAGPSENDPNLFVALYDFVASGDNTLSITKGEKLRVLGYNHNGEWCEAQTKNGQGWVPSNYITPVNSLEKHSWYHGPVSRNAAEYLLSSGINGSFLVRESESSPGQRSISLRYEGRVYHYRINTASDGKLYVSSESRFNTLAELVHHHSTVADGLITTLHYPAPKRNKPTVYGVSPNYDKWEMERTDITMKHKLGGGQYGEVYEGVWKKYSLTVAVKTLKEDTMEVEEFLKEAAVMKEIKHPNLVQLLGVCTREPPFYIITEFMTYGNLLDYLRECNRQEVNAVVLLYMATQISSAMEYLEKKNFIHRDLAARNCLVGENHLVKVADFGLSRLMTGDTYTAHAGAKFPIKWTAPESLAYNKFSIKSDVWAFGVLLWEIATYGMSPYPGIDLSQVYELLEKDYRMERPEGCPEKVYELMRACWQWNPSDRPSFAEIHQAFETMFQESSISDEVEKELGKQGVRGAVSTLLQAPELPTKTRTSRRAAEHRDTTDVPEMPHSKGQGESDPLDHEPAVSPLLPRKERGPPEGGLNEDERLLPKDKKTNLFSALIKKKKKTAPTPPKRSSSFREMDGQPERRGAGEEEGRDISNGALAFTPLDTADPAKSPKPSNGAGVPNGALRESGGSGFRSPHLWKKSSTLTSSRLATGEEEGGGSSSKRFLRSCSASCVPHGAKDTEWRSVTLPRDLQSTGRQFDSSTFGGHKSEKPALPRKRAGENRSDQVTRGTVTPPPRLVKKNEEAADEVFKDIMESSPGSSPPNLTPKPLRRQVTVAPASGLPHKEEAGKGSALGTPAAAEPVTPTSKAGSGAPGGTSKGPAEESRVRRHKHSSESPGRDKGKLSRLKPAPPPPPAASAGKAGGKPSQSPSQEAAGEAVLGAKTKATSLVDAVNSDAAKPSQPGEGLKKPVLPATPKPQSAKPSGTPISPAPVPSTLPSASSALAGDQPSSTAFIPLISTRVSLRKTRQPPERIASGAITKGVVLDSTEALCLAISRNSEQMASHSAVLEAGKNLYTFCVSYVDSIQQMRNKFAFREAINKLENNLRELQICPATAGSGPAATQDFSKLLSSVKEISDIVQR
Description: as §1

DYRK1A = DYRK1A (Homo sapiens, UniProt Q13627); experiment: Determination of IC50 values against DYRK1a; details: average of duplicate; 10 concentrations 100 μM to 0.003 μM; read-out: IC 50 against DYRK1a
Experimental: The kinase assay was carried out using Multidrop 384's at room temperature in a total assay volume of 25.5 μl. To plates containing 0.5 μl of compounds, DMSO controls or acid blanks, 15 μl of an enzyme mix containing the DYRK1a enzyme and peptide/protein substrate in buffer was added. Compounds were pre-incubated in the presence of the enzyme and peptide/protein substrate for 5 minutes before initiation of the reaction by addition of 10 μl of ATP (final concentration selected for each kinase at 5, 20 or 50 μM). Assays were carried out for 30 minutes at room temperature before termination by the addition of 5 μl orthophosphoric acid. The assay plates were then harvested onto P81 Unifilter Plates by a Packard Harvester (wash buffer is 50 mM orthophosphoric acid) and dried in air. The dry Unifilter plates were then sealed by the addition of MicroScint O and counted in Packard Topcount NXT scintillation counters.

MARK2 = MARK2 (Homo sapiens, UniProt Q7KZI7); experiment: Kinase profiling MARK2; details: for remaining activity at 100 µM: read-out: residual kinase activity, MARK2
MARK2, sequence (Q7KZI7 whole entry, species assumed): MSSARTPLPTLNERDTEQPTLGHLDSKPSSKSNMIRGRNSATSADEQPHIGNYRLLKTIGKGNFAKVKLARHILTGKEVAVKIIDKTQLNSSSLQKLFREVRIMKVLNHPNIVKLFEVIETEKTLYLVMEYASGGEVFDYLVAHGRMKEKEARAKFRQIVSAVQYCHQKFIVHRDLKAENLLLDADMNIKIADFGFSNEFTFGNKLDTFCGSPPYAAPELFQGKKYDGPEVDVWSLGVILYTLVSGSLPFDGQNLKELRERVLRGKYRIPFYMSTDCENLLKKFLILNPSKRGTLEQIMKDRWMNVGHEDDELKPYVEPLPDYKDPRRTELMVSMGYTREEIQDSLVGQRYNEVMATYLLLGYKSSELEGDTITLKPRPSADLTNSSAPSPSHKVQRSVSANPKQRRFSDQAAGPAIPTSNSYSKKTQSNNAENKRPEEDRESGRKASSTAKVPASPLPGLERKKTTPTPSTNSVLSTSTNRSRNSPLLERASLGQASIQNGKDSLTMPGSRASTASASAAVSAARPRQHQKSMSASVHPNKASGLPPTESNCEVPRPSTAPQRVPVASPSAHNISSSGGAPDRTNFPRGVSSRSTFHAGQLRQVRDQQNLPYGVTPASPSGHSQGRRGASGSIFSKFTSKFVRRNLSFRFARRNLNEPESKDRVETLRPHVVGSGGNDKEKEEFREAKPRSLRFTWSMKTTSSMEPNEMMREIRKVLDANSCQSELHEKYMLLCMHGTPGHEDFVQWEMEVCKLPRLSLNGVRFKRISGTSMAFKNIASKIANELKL
Description: as §1

TGFBR1 = molecular target: T1, TGFBR1 (Homo sapiens, UniProt P36897); experiment: Kinase profiling TGFBR1; details: for remaining activity at 100 µM: read-out: residual kinase activity, TGFBR1
T1 sequence (P36897 34-503): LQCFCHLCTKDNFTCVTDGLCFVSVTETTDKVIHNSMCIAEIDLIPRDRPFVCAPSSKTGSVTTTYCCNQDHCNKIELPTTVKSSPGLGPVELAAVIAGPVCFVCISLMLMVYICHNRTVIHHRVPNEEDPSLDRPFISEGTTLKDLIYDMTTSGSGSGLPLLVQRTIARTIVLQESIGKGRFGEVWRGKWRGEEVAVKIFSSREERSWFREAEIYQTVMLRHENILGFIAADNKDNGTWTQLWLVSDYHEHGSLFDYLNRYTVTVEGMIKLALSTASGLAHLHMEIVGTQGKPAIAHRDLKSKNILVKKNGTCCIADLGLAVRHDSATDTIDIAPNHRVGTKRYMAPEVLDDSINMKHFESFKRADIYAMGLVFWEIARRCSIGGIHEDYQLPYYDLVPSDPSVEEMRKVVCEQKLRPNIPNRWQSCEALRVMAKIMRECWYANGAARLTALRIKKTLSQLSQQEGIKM
Description: as §1

[1] = 100 micromolar inhibitor concentration, 100 is no change
[2] = 100 micromolar inhibitor, 100 = no change

MELK, sequence (Q14680 whole entry, species assumed): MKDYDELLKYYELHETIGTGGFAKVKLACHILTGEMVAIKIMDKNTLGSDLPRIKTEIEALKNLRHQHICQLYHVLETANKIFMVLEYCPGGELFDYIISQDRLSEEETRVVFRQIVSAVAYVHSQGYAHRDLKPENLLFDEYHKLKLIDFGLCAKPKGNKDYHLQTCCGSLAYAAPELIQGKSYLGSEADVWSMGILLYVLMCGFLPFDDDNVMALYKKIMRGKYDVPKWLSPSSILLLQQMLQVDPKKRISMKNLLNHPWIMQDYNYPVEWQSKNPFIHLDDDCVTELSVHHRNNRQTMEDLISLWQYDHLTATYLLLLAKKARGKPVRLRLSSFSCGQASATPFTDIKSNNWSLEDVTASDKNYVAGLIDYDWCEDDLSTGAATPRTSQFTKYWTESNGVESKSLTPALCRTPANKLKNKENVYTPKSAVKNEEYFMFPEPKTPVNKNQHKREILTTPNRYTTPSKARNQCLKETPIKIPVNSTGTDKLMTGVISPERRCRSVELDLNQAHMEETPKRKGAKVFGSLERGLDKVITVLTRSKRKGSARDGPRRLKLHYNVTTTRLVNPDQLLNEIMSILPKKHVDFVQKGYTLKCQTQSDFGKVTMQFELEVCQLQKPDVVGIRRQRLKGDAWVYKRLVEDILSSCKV

Row | Structure (SMILES) | pIC50 (DYRK1A) | residual kinase activity, MELK (MELK; [1]) | residual kinase activity, MAPKAP-K2 (MAPKAP-K2; [1]) | residual kinase activity, MNK1 (MNK1; [1]) | residual kinase activity, BRK (BRK; [1]) | residual kinase activity, ABL (ABL; [1]) | residual kinase activity, TGFBR1 (TGFBR1; [1]) | residual kinase activity, MARK2 (MARK2; [1]) | also measured
1 | CC(=O)Nc1nc2cc(O)ccc2s1 [Compound 01-66, N-(5-hydroxybenzo[d]thiazol-2-yl)acetamide] | 6.10 |  |  |  |  |  |  |  | remaining activity at 100 µM (MELK): 17%; remaining activity at 100 µM (MAPKAP-K2): 77%; remaining activity at 100 µM (MNK1): 17%; remaining activity at 100 µM (BRK): 77%; remaining activity at 100 µM (ABL): 29%; remaining activity at 100 µM (MARK2): 63%
2 | CC(=O)Nc1nc2ccc(O)cc2s1 [Compound 01-71] | 4.55 |  |  |  |  |  |  |  | remaining activity at 100 µM (MELK; [1]): 24%; remaining activity at 100 µM (MAPKAP-K2; [1]): 46%; remaining activity at 100 µM (MNK1; [1]): 28%; remaining activity at 100 µM (BRK; [1]): 22%; remaining activity at 100 µM (ABL; [1]): 17%; remaining activity at 100 µM (MARK2; [1]): 54%
3 | CC(=O)Nc1nc2ccc(C(F)(F)F)cc2s1 [Compound 01-90] | 5.96 |  |  |  |  |  |  |  | remaining activity at 100 µM (MELK; [1]): 49%; remaining activity at 100 µM (MAPKAP-K2; [1]): 90%; remaining activity at 100 µM (MNK1; [1]): 65%; remaining activity at 100 µM (BRK; [1]): 99%; remaining activity at 100 µM (ABL; [1]): 31%; remaining activity at 100 µM (MARK2; [1]): 74%
4 | CC(=O)Nc1nc2ccc(C#N)cc2s1 [Compound 01-94] | 5.89 |  |  |  |  |  |  |  | remaining activity at 100 µM (MELK; [1]): 34%; remaining activity at 100 µM (MAPKAP-K2; [1]): 65%; remaining activity at 100 µM (MNK1; [1]): 47%; remaining activity at 100 µM (BRK; [1]): 100%; remaining activity at 100 µM (ABL; [1]): 31%; remaining activity at 100 µM (MARK2; [1]): 53%
5 | CC(=O)Nc1cccc(NC(=O)c2nc3ccc(O)cc3s2)c1 [Compound 03-07, N-(3-acetamidophenyl)-6-hydroxybenzo[d]thiazole-2-carboxamide] |  |  |  |  |  |  |  |  | remaining activity at 100 µM (MELK; [2]): 12%; remaining activity at 100 µM (MAPKAP-K2; [2]): 51%; remaining activity at 100 µM (MNK1; [2]): 40%; remaining activity at 100 µM (BRK; [2]): 80%; remaining activity at 100 µM (ABL; [2]): 105%; remaining activity at 100 µM (TGFBR1; [2]): 113%; remaining activity at 100 µM (MARK2; [2]): 73%
6 | O=C(Nc1nc2cc(O)ccc2s1)c1ccncc1 [Compound 03-11] |  | 48 | 82 | 45 | 93 | 99 | 107 | 79 | 
7 | O=C(Nc1nc2ccc(O)cc2s1)c1ccccn1 [Compound 03-12] |  | 31 | 43 | 67 | 61 | 113 | 117 | 90 | 
8 | O=C(Nc1nc2cc(O)ccc2s1)c1ccccn1 [Compound 03-13] |  | 22 | 98 | 100 | 94 | 71 | 109 | 84 | 
9 | COc1ccc2sc(NC(C)=O)nc2c1 [Compound 03-21] | 6.40 |  |  |  |  |  |  |  | remaining activity at 100 µM (MELK; [1]): 44%; remaining activity at 100 µM (MAPKAP-K2; [1]): 108%; remaining activity at 100 µM (MNK1; [1]): 77%; remaining activity at 100 µM (BRK; [1]): 62%; remaining activity at 100 µM (ABL; [1]): 111%; remaining activity at 100 µM (TGFBR1; [1]): 124%; remaining activity at 100 µM (MARK2; [1]): 103%
10 | CC(=O)Nc1nc2ccccc2s1 [Compound 03-32] |  | 83 | 102 | 89 | 89 | 86 | 92 | 88 | 
11 | O=C(Nc1nc2cc(O)ccc2s1)c1cccnc1 [Compound 03-33] |  | 29 | 109 | 21 | 46 | 105 | 88 | 102 | 
12 | O=C(Nc1nc2ccc(O)cc2s1)c1ccccc1 [Compound 03-60] |  | 18 | 59 | 18 | 14 | 54 | 93 | 65 | 
13 | CC(=O)Nc1nc2cc(C(F)(F)F)ccc2s1 [Compound 03-73] | 4.58 |  |  |  |  |  |  |  | remaining activity at 100 µM (MELK; [1]): 91%; remaining activity at 100 µM (MAPKAP-K2; [1]): 114%; remaining activity at 100 µM (MNK1; [1]): 89%; remaining activity at 100 µM (BRK; [1]): 106%; remaining activity at 100 µM (ABL; [1]): 109%; remaining activity at 100 µM (TGFBR1; [1]): 118%; remaining activity at 100 µM (MARK2; [1]): 99%
14 | CC(=O)Nc1nc2cc(C)ccc2s1 [Compound 03-76] |  | 58 | 105 | 81 | 80 | 82 | 98 | 97 | 
15 | CC(=O)Nc1nc2ccc(F)cc2s1 [Compound 03-94] | 4.63 |  |  |  |  |  |  |  | 
16 | O=C(Nc1nc2ccc(O)cc2s1)c1ccncc1 [Compound 08-42] |  | 22 | 72 | 53 | 43 | 76 | 106 | 67 | 
17 | O=C(Nc1nc2ccc(O)cc2s1)c1cccnc1 [Compound 08-44] |  | 29 | 56 | 19 | 21 | 58 | 103 | 74 | 
18 | CC(=O)Nc1nc2ccc([N+](=O)[O-])cc2s1 [Compound 13-10] | 6.15 |  |  |  |  |  |  |  | 
